Experiments:
[1] = Stability of LN002 stock solution; assay type: physicochemical; conditions: for Stock solution stability, measured concentration: nominal concentration 1,000 ng/mL, n = 6, mean ± SD
Procedure: LN002 was dissolved in N,N-dimethylformamide, then mixed to make a concentration of 1 mg/mL standard solution, and stored at −20°C. By investigating the low, middle, and high-concentration stability of rat plasma, the liver and intestinal contents in six replicates at different storage conditions, autosampler, short-term, freeze and thaw, long-term stability, and stock solution stability evaluations were conducted.

[2] = Tissue distribution of LN002 after oral administration in rats; assay type: in vivo, Sprague–Dawley (SD) rats; conditions: oral 200 mg/kg; for Cmax / Tmax / half-life: both sexes, Sprague-Dawley, rat; for Cmax / Tmax / half-life / AUC0-24 h: SD rats
Procedure: Thirty SD rats (15 for each sex) were randomly and equally assigned to 5 groups (half male and half female). The rats in each group were euthanized with pentobarbital sodium (a dose of 180 mg/kg) at five different time points: 0.5, 2, 6, 12 and 24 h after oral administration at 200 mg/kg LN002. Subsequently, various tissues, including the heart, liver, spleen, lungs, kidneys, brain, muscles, small intestine, and intestinal contents, were promptly collected ([Verma et al., 2022]). The dissected tissues were rinsed with normal saline, dried with an absorbent paper, homogenized using a tissue homogenizer, and stored at a temperature of −20°C until further analysis.
Tissue samples and intestinal contents were accurately weighed to 0.5 ± 0.02 g in a 10 mL EP tube and added with 2 mL of extraction solvent (acetonitrile: methanol [2:1, v/v]). The extraction solvent was vortexed for 1 min and centrifuged at 6,000 rpm and 4°C for 10 min. The supernatant was transferred to a new test tube and vortexed after adding 2 mL of water. The sample was purified using solid-phase extraction (SPE) using methanol as the extraction solvent. The Poly-Sery MAX SPE Cartridge (Shanghai Anpu Experimental Technology Co., Ltd., Shanghai, China) was added with 3 mL of methanol to activate, 3 mL of water to rinse, and the abovementioned extraction solvent. Afterward, 2 mL of 10% methanol water was poured into extraction columns to elute impurities. Finally, 1.5 mL of methanol was added to elute the compound and collect the eluent. Twenty microliters of the eluent was passed through a 0.22 μm filter membrane and then injected into the HPLC system for analysis.
A Shimadzu LC-20A system (Shimadzu Technologies, Kyoto, Japan) equipped with a LabSolutions system (version 5.1) system was used for HPLC analysis. The separation process utilized an ARD-C18 column (250 mm × 4.6 mm, 5 µm) (Zhongpu Technology Co., Ltd., Fuzhou, China). The analytes were detected using a UV detector at 333 nm. The chromatographic conditions used an isocratic mobile phase that combines methanol (solvent A) and deionized water (solvent B) (75:25, v/v), and they were propelled through the column at a constant flow rate of 1 mL/min, ensuring uniform separation. The injection volume was 20 μL. The temperature of the column was set to 40°C.
Pharmacokinetic data were obtained via non-compartmental PK analysis of total concentration versus time profiles for plasma using Phoenix WinNonlin 8.2 (Certara, L.P., Princeton, NJ, United States). Statistical analysis and graphing were undertaken using GraphPad Prism 9.5 for Windows (GraphPad Software, Inc., La Jolla, CA, United States).

[3] = Stability of LN002 in rat plasma, liver homogenate and intestinal contents under storage conditions; assay type: in vitro ADME; design: Short-term stability at room temperature (6 h), measured concentration / Freeze and thaw stability at −20°C/Room temperature (3 cycles), measured concentration / Auto-sampler stability (12 h), measured concentration / Long-term stability at −20°C (30 days), measured concentration: unit not given here; conditions: for Auto-sampler stability (12 h), measured concentration / Freeze and thaw stability at −20°C/Room temperature (3 cycles), measured concentration / Long-term stability at −20°C (30 days), measured concentration / Short-term stability at room temperature (6 h), measured concentration: n = 6, mean ± SD
Procedure: By investigating the low, middle, and high-concentration stability of rat plasma, the liver and intestinal contents in six replicates at different storage conditions, autosampler, short-term, freeze and thaw, long-term stability, and stock solution stability evaluations were conducted.

[4] = intestinal contents, n = 6, mean ± SD
[5] = intestinal contents, nominal concentration 50 ng/g
[6] = intestinal contents, nominal concentration 200 ng/g
[7] = intestinal contents, nominal concentration 1,000 ng/g
[8] = liver, nominal concentration 50 ng/g
[9] = liver, nominal concentration 200 ng/g
[10] = liver, nominal concentration 1,000 ng/g
[11] = plasma, nominal concentration 50 ng/mL
[12] = plasma, nominal concentration 200 ng/mL
[13] = plasma, nominal concentration 1,000 ng/mL

Structure (SMILES): N#C/C(=C\c1c[nH]nc1-c1ccccc1)c1nn(-c2ccccc2)c(N)c1C#N [LN002, 5-amino-3-[1-cyano-2-(3-phenyl-4-vinopyrazole))-1-phenyl-4-vinopyrazole]
- Stock solution stability, measured concentration ([1]; 15 d): 0.941 ± 0.091
- Stock solution stability, measured concentration ([1]; 30 d): 0.924 ± 0.051
- Degradation of stock solution (in words) ([1]; stock solution, 15 d and 30 d): no appreciable degradation
- Cmax ([2]; brain, n = 6, mean ± SD): 456 ± 80.9 ng/g
- Tmax ([2]; brain, n = 6, mean ± SD): 0.58 ± 0.19 h
- half-life ([2]; brain, n = 6, mean ± SD): 5.2 ± 2.31 h
- Cmax ([2]; heart, n = 6, mean ± SD): 972 ± 165 ng/g
- Tmax ([2]; heart, n = 6, mean ± SD): 0.57 ± 0.11 h
- half-life ([2]; heart, n = 6, mean ± SD): 6.82 ± 1.65 h
- Cmax [2, 4]: 4.45e+06 ng/g
- Tmax [2, 4]: 3.33 ± 1.6 h
- half-life [2, 4]: 1.64 ± 0.01 h
- Cmax ([2]; intestine, n = 6, mean ± SD): 607000 ng/g
- Tmax ([2]; intestine, n = 6, mean ± SD): 2.67 ± 1.49 h
- half-life ([2]; intestine, n = 6, mean ± SD): 5.48 ± 1.48 h
- Tmax ([2]; kidney, n = 6): 0.5 h
- Cmax ([2]; kidney, n = 6, mean ± SD): 561 ± 135 ng/g
- half-life ([2]; kidney, n = 6, mean ± SD): 5.03 ± 1.52 h
- Cmax ([2]; liver, n = 6, mean ± SD): 478 ± 157 ng/g
- Tmax ([2]; liver, n = 6, mean ± SD): 0.67 ± 0.19 h
- half-life ([2]; liver, n = 6, mean ± SD): 5.54 ± 0.66 h
- Cmax ([2]; lung, n = 6, mean ± SD): 8700 ± 1410 ng/g
- Tmax ([2]; lung, n = 6, mean ± SD): 2.09 ± 0.43 h
- half-life ([2]; lung, n = 6, mean ± SD): 5.43 ± 1.6 h
- Cmax ([2]; muscle, n = 6, mean ± SD): 3980 ± 589 ng/g
- Tmax ([2]; muscle, n = 6, mean ± SD): 0.58 ± 0.19 h
- half-life ([2]; muscle, n = 6, mean ± SD): 6.3 ± 2.71 h
- Tmax ([2]; spleen, n = 6): 0.5 h
- Cmax ([2]; spleen, n = 6, mean ± SD): 645 ± 187 ng/g
- half-life ([2]; spleen, n = 6, mean ± SD): 5.8 ± 1.93 h
- AUC0-24 h ([2]; brain, n = 6, mean ± SD): 1328.60 ± 176.19 h⋅ng/g
- AUC0-24 h ([2]; heart, n = 6, mean ± SD): 3855.84 ± 323.04 h⋅ng/g
- AUC0-24 h [2, 4]: 35080673.50 ± 644,065.57 h⋅ng/g
- AUC0-24 h ([2]; intestine, n = 6, mean ± SD): 2185750.70 ± 149,399.23 h⋅ng/g
- AUC0-24 h ([2]; kidney, n = 6, mean ± SD): 1781.24 ± 453.85 h⋅ng/g
- AUC0-24 h ([2]; liver, n = 6, mean ± SD): 4051.62 ± 586.44 h⋅ng/g
- AUC0-24 h ([2]; lung, n = 6, mean ± SD): 84,344.09 ± 9677.76 h⋅ng/g
- AUC0-24 h ([2]; muscle, n = 6, mean ± SD): 12,634.31 ± 2366.24 h⋅ng/g
- Rank order of concentration in tissues and intestinal contents ([2]; rats): intestinal contents, followed by the small intestine, lung, muscle, heart, liver, spleen, kidney, and brain
- Detection in tissues at the last time point (in words) ([2]; rats, 24 h): detected at 24 h in all tissues and intestinal contents
- AUC0-24 h ([2]; spleen, n = 6, mean ± SD): 2280.55 ± 418.06 h⋅ng/g
- Auto-sampler stability (12 h), measured concentration [3, 5]: 0.048 ± 0.001
- Freeze and thaw stability at −20°C/Room temperature (3 cycles), measured concentration [3, 5]: 0.050 ± 0.002
- Long-term stability at −20°C (30 days), measured concentration [3, 5]: 0.048 ± 0.002
- Short-term stability at room temperature (6 h), measured concentration [3, 5]: 0.051 ± 0.002
- Auto-sampler stability (12 h), measured concentration [3, 6]: 0.191 ± 0.011
- Freeze and thaw stability at −20°C/Room temperature (3 cycles), measured concentration [3, 6]: 0.192 ± 0.009
- Long-term stability at −20°C (30 days), measured concentration [3, 6]: 0.202 ± 0.003
- Short-term stability at room temperature (6 h), measured concentration [3, 6]: 0.204 ± 0.007
- Auto-sampler stability (12 h), measured concentration [3, 7]: 1.001 ± 0.034
- Freeze and thaw stability at −20°C/Room temperature (3 cycles), measured concentration [3, 7]: 0.978 ± 0.053
- Long-term stability at −20°C (30 days), measured concentration [3, 7]: 0.997 ± 0.012
- Short-term stability at room temperature (6 h), measured concentration [3, 7]: 0.976 ± 0.042
- Auto-sampler stability (12 h), measured concentration [3, 8]: 0.049 ± 0.002
- Freeze and thaw stability at −20°C/Room temperature (3 cycles), measured concentration [3, 8]: 0.051 ± 0.002
- Long-term stability at −20°C (30 days), measured concentration [3, 8]: 0.051 ± 0.002
- Short-term stability at room temperature (6 h), measured concentration [3, 8]: 0.050 ± 0.003
- Auto-sampler stability (12 h), measured concentration [3, 9]: 0.198 ± 0.007
- Freeze and thaw stability at −20°C/Room temperature (3 cycles), measured concentration [3, 9]: 0.205 ± 0.005
- Long-term stability at −20°C (30 days), measured concentration [3, 9]: 0.196 ± 0.007
- Short-term stability at room temperature (6 h), measured concentration [3, 9]: 0.197 ± 0.009
- Auto-sampler stability (12 h), measured concentration [3, 10]: 1.065 ± 0.036
- Freeze and thaw stability at −20°C/Room temperature (3 cycles), measured concentration [3, 10]: 0.985 ± 0.057
- Long-term stability at −20°C (30 days), measured concentration [3, 10]: 0.995 ± 0.064
- Short-term stability at room temperature (6 h), measured concentration [3, 10]: 0.984 ± 0.042
- Auto-sampler stability (12 h), measured concentration [3, 11]: 0.050 ± 0.002
- Freeze and thaw stability at −20°C/Room temperature (3 cycles), measured concentration [3, 11]: 0.048 ± 0.002
- Long-term stability at −20°C (30 days), measured concentration [3, 11]: 0.052 ± 0.002
- Short-term stability at room temperature (6 h), measured concentration [3, 11]: 0.051 ± 0.003
- Auto-sampler stability (12 h), measured concentration [3, 12]: 0.204 ± 0.014
- Freeze and thaw stability at −20°C/Room temperature (3 cycles), measured concentration [3, 12]: 0.197 ± 0.014
- Long-term stability at −20°C (30 days), measured concentration [3, 12]: 0.203 ± 0.006
- Short-term stability at room temperature (6 h), measured concentration [3, 12]: 0.210 ± 0.013
- Auto-sampler stability (12 h), measured concentration [3, 13]: 0.992 ± 0.061
- Freeze and thaw stability at −20°C/Room temperature (3 cycles), measured concentration [3, 13]: 1.028 ± 0.035
- Long-term stability at −20°C (30 days), measured concentration [3, 13]: 1.035 ± 0.080
- Short-term stability at room temperature (6 h), measured concentration [3, 13]: 0.987 ± 0.032
- Stability in plasma and tissue homogenate (in words) ([3]; rat plasma, liver, intestinal contents, short-term, freeze and thaw, auto-sampler, long-term): stable

Source: publication PMC11325084, “Pharmacokinetics and tissue distribution of LN002, a new compound alternative oxidase inhibitor against Cryptosporidium in rats” (Frontiers in Pharmacology, 2024)
